In patent US11116735B2, “Use of substituted benzylideneguanidine derivatives as synergists for polymyxin antibiotics” (GUANGZHOU INSIGHTER BIOTECHNOLOGY CO., LTD., priority 2015, dated 2021):
Several values for one entry are separate records, joined by “and”; a condition that tells them apart may be missing. Equal entries are not always repeated.

Tests used:
E. coli 3Y-9 = assay: MIC by doubling dilution, colistin sulfate-susceptible E. coli 3Y-9; type: cell-based, Escherichia coli; settings: E. coli 3Y-9, colistin sulfate-susceptible; substance alone; derivatives as hydrochlorides
E. coli 2S-19 = assay: MIC by doubling dilution, colistin sulfate-susceptible E. coli 2S-19; type: cell-based, Escherichia coli; settings: E. coli 2S-19, colistin sulfate-susceptible; substance alone; derivatives as hydrochlorides
E. coli 5W-7 = assay: MIC by doubling dilution, colistin sulfate-susceptible E. coli 5W-7; type: cell-based, Escherichia coli; settings: E. coli 5W-7, colistin sulfate-susceptible; substance alone; derivatives as hydrochlorides
E. coli 3B-24 = assay: MIC by doubling dilution, colistin sulfate-susceptible E. coli 3B-24; type: cell-based, Escherichia coli; settings: E. coli 3B-24, colistin sulfate-susceptible; substance alone; derivatives as hydrochlorides
weanling piglets [1] = assay: Synergy of derivatives and colistin sulfate in the feed for weanling piglets; type: in vivo, Duroc×Landrace×Large crossbred lean weanling piglets; settings: creep feed with only 20 ppm colistin sulfate (control group), ten days
Protocol: 90 28-day-aged Duroc×Landrace×Large crossbred lean weanling piglets similar in weight were divided into 9 groups, 10 piglets in each group. For each group, colistin sulfate and/or various substituted benzylideneguanidine derivatives were added into the antibiotic-free creep feed. The piglets were given ad libitum access to feed and water during the experiment. Weight gain, feed efficiency and diarrhea rate of each group within ten days were recorded.

weanling piglets [2] = assay: Synergy of compound 3 and colistin sulfate in the feed for weanling piglets; type: in vivo, Duroc×Landrace×Large crossbred lean weanling piglets; settings: weanling piglets, only 20 ppm colistin sulfate in creep feed (Control 1, groups 4-6), ten days
Protocol: 120 28-day-aged Duroc×Landrace×Large crossbred lean weanling piglets similar in weight were divided into 12 groups, 10 piglets in each group. For each group, colistin sulfate and/or compound 3 were added into the antibiotic-free creep feed. The piglets were given ad libitum access to feed and water during the experiment. Weight gain, feed efficiency and diarrhea rate of each group within ten days were recorded.

weanling piglets [3] = assay: Compound 3 in various dosages and colistin sulfate in the feed for weanling piglets; type: in vivo, Duroc×Landrace×Large crossbred lean weanling piglets; settings: weanling piglets, only 20 ppm colistin sulfate in creep feed (control group), ten days
Protocol: 90 28-day-aged Duroc×Landrace×Large crossbred lean weanling piglets similar in weight were divided into 9 groups, 10 piglets in each group. For each group, colistin sulfate and/or various dosages of compound 3 were added into the antibiotic-free creep feed. The piglets were given ad libitum access to feed and water during the experiment. Weight gain, feed efficiency and diarrhea rate of each group within ten days were recorded.

[4] = test system: fast-growing yellow feather broilers; assay: Combined application of compound 3 and colistin sulfate in chicken feed; type: in vivo; settings: broilers, 50 ppm colistin sulfate in feed, 28-day experiment
Protocol: 800 1-day-aged fast-growing yellow feather broilers were divided into 4 groups, 4 parallels in each group and 50 broilers in each parallel. For each group, colistin sulfate and/or compound 3 were added into the feed. The chicken were kept in cages and given ad libitum access to feed and water during a 28-day experiment. Synergy of compound 3 and colistin sulfate on the chicken in the weight gain and feed efficiency was observed from the result (see Table 10).

cherry valley ducks = assay: Combined application of compound 3 and colistin sulfate in duck feed; type: in vivo; settings: 40 ppm colistin sulfate in feed, 21-day experiment
Protocol: 800 1-day-aged cherry valley ducks were divided into 4 groups according to Table 10, 4 parallels in each group and 50 ducks in each parallel. For each group, colistin sulfate and/or compound 3 were added into the feed. The ducks were kept in cages and given ad libitum access to feed and water during a 21-day experiment. Synergy of compound 3 and colistin sulfate on the ducks in the weight gain and feed efficiency was observed from the result (see Table 11).

[5] = test system: colistin sulfate-susceptible Escherichia coli strains; assay: MIC by doubling dilution, summary over colistin sulfate-susceptible strains; type: cell-based; settings: bound that characterises the tested susceptible E. coli strains
[6] = test system: various colistin sulfate-resistant Gram-negative bacteria; assay: MIC by doubling dilution, summary over resistant species; settings: bound that characterises the tested resistant strains
Protocol: (§1) The compound 3 in this embodiment was in the form of a hydrochloride, i.e., the experiments were carried out with a hydrochloride of compound 3.
(§2) In vitro minimum inhibitory concentrations of colistin sulfate against the strains where the cultures respectively comprised various concentrations of compound 3 were also measured.

E. coli 2G-7 = assay: MIC by doubling dilution, colistin sulfate-resistant E. coli 2G-7; settings: E. coli 2G-7, colistin sulfate-resistant; substance alone; derivatives as hydrochlorides
Protocol: (§3) In vitro minimum inhibitory concentrations of colistin sulfate against the strains where the cultures respectively comprised 20.0 ppm of the substituted benzylideneguanidine derivatives were also measured.

E. coli 5F-1 [7] = assay: MIC by doubling dilution, colistin sulfate-resistant E. coli 5F-1; settings: E. coli 5F-1, colistin sulfate-resistant; substance alone; derivatives as hydrochlorides
Protocol: as §3

E. coli 4D-6 = assay: MIC by doubling dilution, colistin sulfate-resistant E. coli 4D-6; settings: E. coli 4D-6, colistin sulfate-resistant; substance alone; derivatives as hydrochlorides
Protocol: as §3

E. coli 3H-4 = assay: MIC by doubling dilution, colistin sulfate-resistant E. coli 3H-4; settings: E. coli 3H-4, colistin sulfate-resistant; substance alone; derivatives as hydrochlorides
Protocol: as §3

[8] = test system: colistin sulfate-resistant E. coli strains; assay: MIC by doubling dilution, summary over colistin sulfate-resistant strains; settings: bound that characterises the tested resistant E. coli strains
Protocol: as §3

E. coli 5F-1 [9] = assay: MIC, resistance reversal by various concentrations of compound 3, E. coli 5F-1; settings: colistin sulfate with 0 ppm compound 3, or compound 3 (hydrochloride) in the absence of colistin sulfate
Protocol: as §1, §2

Shigella sp. 2D89 = assay: MIC, resistance reversal by various concentrations of compound 3, Shigella sp. 2D89; settings: colistin sulfate with 0 ppm compound 3, or compound 3 (hydrochloride) in the absence of colistin sulfate
Protocol: as §1, §2

P. aeruginosa E543 = assay: MIC, resistance reversal by various concentrations of compound 3, P. aeruginosa E543; settings: colistin sulfate with 0 ppm compound 3, or compound 3 (hydrochloride) in the absence of colistin sulfate
Protocol: as §1, §2

Klebsiella sp. 4125 = assay: MIC, resistance reversal by various concentrations of compound 3, Klebsiella sp. 4125; settings: colistin sulfate with 0 ppm compound 3, or compound 3 (hydrochloride) in the absence of colistin sulfate
Protocol: as §1, §2

Substance: colistin sulfate [reference compound]
- In vitro minimum inhibitory concentration (MIC) of the substance alone (E. coli 3Y-9): 2.0 ppm and 2.00 ppm
- In vitro minimum inhibitory concentration (MIC) of the substance alone (E. coli 2S-19): 2.0 ppm and 2.00 ppm
- In vitro minimum inhibitory concentration (MIC) of the substance alone (E. coli 5W-7): 1.0 ppm and 1.00 ppm
- In vitro minimum inhibitory concentration (MIC) of the substance alone (E. coli 3B-24): 2.0 ppm and 2.00 ppm
- Average daily weight gain (weanling piglets [1]): 219 g
- Diarrhea rate (weanling piglets [1]): 33%
- Feed conversion ratio (weanling piglets [1]): 1.649
- Average daily weight gain (weanling piglets [2]): 215 g and 208 g and 217 g
- Diarrhea rate (weanling piglets [2]): 31% and 29% and 33%
- Feed conversion ratio (weanling piglets [2]): 1.654 and 1.598 and 1.623
- Average daily weight gain (weanling piglets [3]): 211 g
- Diarrhea rate (weanling piglets [3]): 33%
- Feed conversion ratio (weanling piglets [3]): 1.672
- Average daily weight gain [4]: 39.8 g
- Feed conversion ratio [4]: 1.965
- Survival rate [4]: 100%
- Average daily weight gain (cherry valley ducks): 50.1 g
- Feed conversion ratio (cherry valley ducks): 1.945
- Survival rate (cherry valley ducks): 100%
- MIC value of colistin sulfate against the susceptible strains [5]: lower than 4.0 ppm
- MIC value of colistin sulfate against the resistant Gram-negative bacteria [6]: higher than 4.0 ppm
- In vitro minimum inhibitory concentration (MIC) of the substance alone (E. coli 2G-7): 64 ppm and 64.0 ppm
- In vitro minimum inhibitory concentration (MIC) of the substance alone (E. coli 5F-1 [7]): 128 ppm and 128.0 ppm
- In vitro minimum inhibitory concentration (MIC) of the substance alone (E. coli 4D-6): 256 ppm and 256.0 ppm
- In vitro minimum inhibitory concentration (MIC) of the substance alone (E. coli 3H-4): 64 ppm and 64.0 ppm
- MIC value of colistin sulfate against the resistant strains [8]: higher than 4.0 ppm
- In vitro MIC of the substance alone (E. coli 5F-1 [9]): 128.00 ppm
- In vitro MIC of the substance alone (Shigella sp. 2D89): 32.00 ppm
- In vitro MIC of the substance alone (P. aeruginosa E543): 64.00 ppm
- In vitro MIC of the substance alone (Klebsiella sp. 4125): 64.00 ppm
